In patent US4405713A, “Process for the preparation of optically active anthracycline glycosides A and B” (priority 1981, dated 1983):
Converted amounts (≈) assume the structure as drawn. Read-outs that look alike come from different tables or passages of the source.

Legend:
[1] = tested on: Pseudomonas aeruginosa IFO 12689; experiment: in vitro minimum inhibitory concentration (MIC), agar streak method; assay type: cell-based; conditions: IFO12689
[2] = tested on: Staphylococcus aureus 209P IAM 1011; experiment: as above; assay type: cell-based
[3] = tested on: Klebsiella pheumonia IFO 3512; experiment: as above; assay type: cell-based; conditions: IFO3512
[4] = tested on: Bacillus subtilis IAM 1027; experiment: as above; assay type: cell-based; conditions: IAM1027
[5] = tested on: Escherichia coli K-12 IAM 1264; experiment: as above; assay type: cell-based; conditions: IAM1264
[6] = tested on: Proteus vulgaris IAM 1025; experiment: as above; assay type: cell-based; conditions: IAM1025
[7] = tested on: Staphylococcus epidermidis IFO 12993; experiment: as above; assay type: cell-based; conditions: IFO12993
[8] = tested on: Micrococcus flavus ATCC 10240; experiment: as above; assay type: cell-based; conditions: ATCC10240
Sarcina lutea IAM 1009 = experiment: as above; assay type: cell-based; conditions: Micrococcus luteus, IAM1009
P388 leukemia = experiment: antitumour activity against P388 leukemia in mice, survival time; assay type: in vivo, male CDF1 mice; conditions: i.p., days 1, 5 and 9; for Mean survival: control 10.6 ± 0.6
Protocol: 4-Deoxy-aclacinomycin A obtained in the present invention was tested against P388 leukemia in mice. When male CDF1 mice (5 week old) were inoculated with 10^6 of P388 leukemia cells intraperitoneally and the antibiotic was administered through the same route on days 1, 5 and 9, the survival time of the treated mice was prolonged as shown in Table 6.

[9] = toxicity (survival of treated mice); assay type: in vivo
Protocol: All the mice treated with 100 mg/kg of 4-deoxy-aclacinomycin A, i.p., survived more than 7 days.

Q: For `CC[C@@]1(O)C[C@H](O[C@H]2C[C@H](N(C)C)[C@H](O[C@H]3C[C@@H]4OC5CC(=O)C(C)OC5O[C@@H]4[C@H](C)O3)[C@H](C)O2)c2c(cc3c(c2O)C(=O)c2ccccc2C3=O)[C@H]1C(=O)OC` (stereo partly drawn) [4-Deoxy-aclacinomycin B, 4-deoxy-aclacinomycin B], which MIC ([1]; Pseudomonas aeruginosa) is on record?
A: The MIC was greater than 100 mg/L.

Q: What about the MIC ([2]; Staphylococcus aureus) of the same molecule?
A: The MIC was 3.13 mg/L (≈ 3.94 µM).

Q: And the MIC ([3]; Klebsiella)?
A: The MIC was greater than 100 mg/L.

Q: And the MIC ([4]; Bacillus subtilis)?
A: The MIC was 6.25 mg/L (≈ 7.87 µM).

Q: What about the MIC ([5]; Escherichia coli) of the same molecule?
A: The MIC was greater than 100 mg/L.

Q: What about the MIC ([6]; Proteus vulgaris) of the same molecule?
A: The MIC was greater than 100 mg/L.

Q: And the MIC ([7]; Staphylococcus epidermidis)?
A: Its MIC is 3.13 mg/L (≈ 3.94 µM).

Q: And the MIC ([8]; Micrococcus flavus)?
A: Its MIC is 0.39 mg/L (≈ 0.491 µM).

Q: And the MIC (Sarcina lutea IAM 1009)?
A: The MIC was 0.39 mg/L (≈ 0.491 µM).

Q: Which results are given for `CC[C@@]1(O)C[C@H](O[C@H]2C[C@H](N(C)C)[C@H](O[C@H]3C[C@H](O)[C@H](O[C@H]4CCC(=O)[C@H](C)O4)[C@H](C)O3)[C@H](C)O2)c2c(cc3c(c2O)C(=O)c2ccccc2C3=O)[C@H]1C(=O)OC` [4-Deoxy-aclacinomycin A, 4-deoxy-aclacinomycin A]?
A: MIC ([1]; Pseudomonas aeruginosa IFO 12689, read-out: MIC): > 100 mg/L; MIC ([2]; Staphylococcus aureus 209P IAM 1011, read-out: MIC): 0.78 mg/L (≈ 0.98 µM); MIC ([3]; Klebsiella pheumonia IFO 3512, read-out: MIC): > 100 mg/L; MIC ([4]; Bacillus subtilis IAM 1027, read-out: MIC): 0.39 mg/L (≈ 0.49 µM); MIC ([5]; Escherichia coli K-12 IAM 1264, read-out: MIC): > 100 mg/L; MIC ([6]; Proteus vulgaris IAM 1025, read-out: MIC): > 100 mg/L; MIC ([7]; Staphylococcus epidermidis IFO 12993, read-out: MIC): 0.78 mg/L (≈ 0.98 µM); Increase in life span (%) (P388 leukemia; total dose 5.6 mg/Kg): 8%; Mean survival (P388 leukemia; total dose 5.6 mg/Kg): 11.5 ± 0.5 days; Increase in life span (%) (P388 leukemia; total dose 11.3 mg/Kg): 18%; Mean survival (P388 leukemia; total dose 11.3 mg/Kg): 12.5 ± 0.5 days; Increase in life span (%) (P388 leukemia; total dose 22.5 mg/Kg): 23%; Mean survival (P388 leukemia; total dose 22.5 mg/Kg): 13.0 ± 0.0 days; Increase in life span (%) (P388 leukemia; total dose 45 mg/Kg): 27%; Mean survival (P388 leukemia; total dose 45 mg/Kg): 13.5 ± 0.5 days; Increase in life span (%) (P388 leukemia; total dose 90 mg/Kg): 57%; Mean survival (P388 leukemia; total dose 90 mg/Kg): 16.5 ± 0.5 days; survival of all the mice treated ([9]; 100 mg/kg, i.p.): more than 7 days; toxicity as compared with that of aclacinomycin A ([9]; statement in words): very low as compared with that of aclacinomycin A; MIC ([8]; Micrococcus flavus ATCC 10240, read-out: MIC): 0.19 mg/L (≈ 0.239 µM); MIC (Sarcina lutea IAM 1009; Sarcina lutea IAM 1009, read-out: MIC): 0.19 mg/L (≈ 0.239 µM)
